{"source": "patent US12285434B2", "about": "“Therapeutic, preventive, or improvement agent for inflammatory disease and allergic disease” (The University of Tokyo, priority 2018, dated 2025)", "key": {"mouse aortae": {"tested_on": "mouse aortae", "assay": "Measurement of vascular contraction of aorta (aortic ring specimens)", "experimental": "After excision of the thoracic aortae from untreated mice and removal of fat and connective tissue, the aortae were cut into rings to prepare aortic ring specimens. The ring specimens were immersed in a liquid tank filled with a normal nutrient solution (physiological saline solution containing 136.9 mM NaCl, 5.4 mM KCl, 5.5 mM glucose, 23.8 mM NaHCO3, 1.5 mM CaCl2, 1.0 mM MgCl2 and 0.01 mM EDTA), and two stainless hooks were penetrated through the lumens of the ring specimens. One end of each of the stainless hooks was fixed, and the other end thereof was connected to a force-displacement transducer (T7-30-240, manufactured by Orientec Co., Ltd.) connected to a strain amplifier (3134 strain AMPL, manufactured by Yokogawa Test & Measurement Corporation). Then, the following operation (a), (b) or (c) was performed.\n(a) Norepinephrine (manufactured by Sigma) was cumulatively added into the liquid tank containing the ring specimens after stabilization of each contraction (every about 30 minutes) so as to attain 0.001 μM, 0.01 μM, 0.1 μM and 1 μM, and this group was designated as a “norepinephrine-administered group” (n=4) (FIG. 3A). 5,6-DiHETE was cumulatively added into the liquid tank containing the ring specimen after stabilization of each contraction (every about 30 minutes) so as to attain 0.001 μM, 0.01 μM, 0.1 μM and 1 μM, and this group was designated as a “5,6-DiHETE-administered group” (n=4) (FIG. 3A).\n(b) Norepinephrine was added into the liquid tank containing the ring specimens so as to attain 0.3 μM, and precontraction was induced by administration of norepinephrine (FIG. 3B). Then, after the contraction by the administration of norepinephrine was stabilized, acetylcholine (manufactured by Sigma) was cumulatively added after stabilization of each relaxation reaction (every about 15 minutes) so as to attain 0.03 μM, 0.1 μM, 0.3 μM and 1 μM, and this group was designated as an “acetylcholine-administered group” (FIG. 3B). After the contraction by the administration of norepinephrine was stabilized, 5,6-DiHETE was cumulatively added every about 15 minutes so as to attain 0.001 μM, 0.01 μM, 0.1 μM and 1 μM, and this group was designated as a “5,6-DiHETE-administered group” (n=4) (FIG. 3B).\n(c) In order to verify the effect of 5,6-DiHETE on the acetylcholine administration, norepinephrine was added into the liquid tank containing the ring specimens so as to attain 1 μM. After the contraction by the administration of norepinephrine was stabilized, 5,6-DiHETE or a vehicle (solvent alone) was added so as to attain 1 μM. […]\nIn the above operations (a) to (c), tension (contractile force) generated in the aortic ring specimens was measured isometrically over time using the above force-displacement transducer under a resting tension of 3 mN, and recorded."}, "[1]": {"tested_on": "DSS-induced colitis model mice", "assay": "DSS-induced colitis: histologic score and colon edema (wet/dry weight ratio)", "assay_type": "in vivo, mouse (C57BL/6)", "conditions": "Day 14; 50 μg/kg/day intraperitoneally on Days 9, 11 and 13", "source_text": "C57BL/6 strain mice (male, 8 to 12 weeks old) were fed with water containing 2% dextran sodium sulfate (manufactured by MP Bio, hereinafter sometimes referred to as “DSS”) for 4 days to prepare colitis model mice (hereinafter, sometimes referred to as “colitis group” in Examples 7 to 10). The mice taken with DSS for 4 days were fed with normal water from Day 5. The DSS intake start date was defined as Day 1 of the test, and the day before the DSS intake start date was defined as Day 0 of the test. In addition, a group in which C57BL/6 strain mice (male, 8 to 12 weeks old) were fed with normal water was defined as a “healthy group” (the same applies to Examples 8 to 10).\nTo investigate the role of 5,6-DiHETE in the healing phase, the colitis model mice prepared in Example 7(1) were intraperitoneally injected with 5,6-DiHETE (manufactured by Cayman Chemical) (50 μg/kg/day) or HC-067047 (manufactured by Cayman Chemical) (1 mg/kg/day) on Days 9, 11 and 13 of the test (hereinafter, sometimes referred to as “5,6-DiHETE-administered group” and “HC-067047-administered group,” respectively, in Examples 9 and 10). HC-067047 is known to inhibit an increase of calcium ion concentration in endothelial cells.\nDistal colon sections on Day 14 of the test in the healthy group, colitis group, 5,6-DiHETE-administered group and HC-067047-administered group were fixed in 4% paraformaldehyde for 24 hours, embedded in paraffin and cut into 2 μm-thick sections. Hematoxylin staining and eosin staining of these sections were performed according to a conventional method. The histologic score was then decided according to the description of Kruschewski M. et al., Digestive Diseases and Sciences, 46: 2336-2343 (2001) to evaluate the colitis severity.\nThe wet/dry weight ratio was used as an index of colon edema (Rachmilewitz D. et al., Gastroenterology, 97: 326-337(1989)). Specifically, the distal colon was collected, and the wet weight was measured. The distal colon was then dried at 60 C for 24 hours, and, thereafter, the dry weight was measured."}}}
{"smiles": "CC/C=C\\C/C=C\\C/C=C\\C/C=C\\C[C@@H](O)[C@@H](O)CCCC(=O)O", "note": "(racemic) [5,6-DiHETE, (±) 5,6-dihydroxy-8Z,11Z,14Z,17Z-eicosatetraenoic acid]", "values": [{"measurement": "acetylcholine-induced aortic relaxation vs vehicle-administered group", "setting": "mouse aortae; 1 μM pretreatment, precontraction 1 μM norepinephrine, acetylcholine 0.03-1 μM", "result": "significantly attenuated"}, {"measurement": "contraction of aorta", "setting": "mouse aortae; cumulative addition 0.001, 0.01, 0.1 and 1 μM", "result": "no contraction was caused"}, {"measurement": "effect on aorta precontracted by norepinephrine", "setting": "mouse aortae; precontraction 0.3 μM norepinephrine, cumulative 0.001, 0.01, 0.1 and 1 μM", "result": "did not affect the precontraction by norepinephrine"}, {"measurement": "colon edema, wet/dry weight ratio", "setting": "[1]", "result": "5.2±0.2"}, {"measurement": "histologic score of colitis", "setting": "[1]", "result": "3.3±0.5"}]}
